pIC50: −log10 of the molar value.
Columns and labels:
Format in all cases: cell-based
[1] = system: MCF-7; assay: CellTiter-Glo cell proliferation inhibition, MCF-7 (Effect Example 2); conditions: Homo sapiens, MCF7, 144 h, MCF-7 (CTG), 6 days, starting concentration 10 μM; for inhibition at up to 10 µM: read-out: IH % max (maximum inhibition percentage)
Source text: (§1) 1. Cell line • (1) Breast cancer cell lines and their culture media: • MCF-7 (ATCC; Cat. No.: HTB-22), a Luminal A breast cancer cell; • TamR-MCF-7 (ATCC; Cat. No.: CRL-3435), a breast cancer cell; • MCF-7 ER^D538G: a Luminal A breast cancer cell obtained by constructing MCF-7 (ATCC; Cat. No.: HTB-22) using CRISPR-Cas9 gene editing technology; • MCF-7 ER^Y537S: a Luminal A breast cancer cell obtained by constructing MCF-7 (ATCC; Cat. No.: HTB-22) using CRISPR-Cas9 gene editing technology; • MDA-MB-231: (manufacturer: Nanjing CoBioer Biosciences Co., Ltd.), a triple-negative breast cancer cell; • MDA-MB-468: (manufacturer: Nanjing CoBioer Biosciences Co., Ltd.), a triple-negative breast cancer cell.
(§2) Herein, the culture medium of MCF-7, TamR-MCF-7, MCF-7 ER^D538G, and MCF-7 ER^Y537S was EMEM; • the culture medium of MDA-MB-231 and MDA-MB-468 was DMEM.
(§3) 2. Reagents • Culture medium EMEM (Gibco, 1964507) • Culture medium DMEM (Gibco, 12430-054) • Fetal bovine serum (Gibco, 10091148) • Penicillin-streptomycin double antibody (Gibco, S110JV) • DPBS (Gibco, 14190-144) • CellTiter-Glo® assay kit (Promega, G7573) • Trypsin (0.25%) (Gibco, 25200-056) • DMSO (Sigma, D2650)
(§4) 3. Instruments • Biosafety cabinet (AIRTECH, BSC-1300A II) • Automated cell counter (Life Technologies, countess II) • Multifunctional microplate reader (Biotek, H1FM) • Orbital shaker (Hangzhou Allsheng Instruments Co., Ltd., OS-100) • XLFIT 5.3 (Inforstack Shanghai Co., Ltd.)
(§5) For this test method, the following experiments were performed in a biosafety cabinet, with the specific steps as follows: • (1) Cells were inoculated in a 96-well plate. One day later, the previous culture medium was poured off, 5 mL of DPBS was added to wash the cells, and then DPBS was pipetted and discarded. An appropriate amount of trypsin was then added. The plate was digested in a 37° C., 5% CO2 cell incubator for about 2 to 5 minutes and then taken out. Anew corresponding culture medium was added, and pipetted up and down to resuspend the cells evenly. The cells were then counted using an automated cell counter. • (2) Each cell was inoculated in columns 1 to 11 of a 96-well plate (Corning, Cat. No.: 3610) at a density of 1,000 or 2,000 cells per well in 100 μL of culture medium, and 100 μL of the corresponding culture medium without cells was added to the wells in column 12. The plate was then placed in a 37° C., 5% CO2 incubator for 24 hours. • (3) The compound of the present disclosure and the control drug fulvestrant (Selleck; Cat. No.: S1191) were then 4-fold serially diluted to 10 dose points starting at 10 μM. 10 μL of the serially diluted compound was pipetted and added to 100 μL of cells in columns 1 to 10, and 10 μL of the corresponding culture medium containing 0.33 v % DMSO was added to both columns 11 and 12. The plate was incubated in a 37° C., 5% CO2 incubator for 6 days or 72 hours (Note: column 11 was used as a MAX well with cells but without compound; column 12 was used as a MIN well without cells […]). • (4) The cell viability detection reagent in the CellTiter-Glo® assay kit was then added to the 96-well plate at 50 μL per well according to the instructions, and shaken on an orbital shaker in the dark for 5 to 10 minutes. The cell viability was then measured using a multifunctional microplate reader. Finally, the inhibition of cell proliferation by the compound of the present disclosure was plotted by XLFIT software, and the IC50 value (half inhibitory concentration) and the IH % max (maximum inhibition percentage) of the compound of the present disclosure were calculated.

[2] = system: TamR-MCF-7; assay: CellTiter-Glo cell proliferation inhibition, TamR-MCF-7; conditions: 144 h; TamR-MCF-7 (CTG), 6 days, starting concentration 10 μM; read-out: IH % max (maximum inhibition percentage)
Source text: as §1, §2, §3, §4, §5

[3] = system: MCF-7 ER^D538G; assay: CellTiter-Glo cell proliferation inhibition, MCF-7 ER^D538G; conditions: Homo sapiens, MCF7, 144 h, MCF-7 ER^D538G (CTG), 6 days, starting concentration 10 μM; for inhibition at up to 10 µM: read-out: IH % max (maximum inhibition percentage)
Source text: as §1, §2, §3, §4, §5

[4] = system: MCF-7 ER^Y537S; assay: CellTiter-Glo cell proliferation inhibition, MCF-7 ER^Y537S; conditions: Homo sapiens, MCF7, 144 h; MCF-7 ER^Y537S (CTG), 6 days, starting concentration 10 μM; read-out: IH % max (maximum inhibition percentage)
Source text: as §1, §2, §3, §4, §5

[5] = system: MDA-MB-468; assay: CellTiter-Glo cell proliferation inhibition, MDA-MB-468; conditions: Homo sapiens, 144 h; MDA-MB-468 (CTG), 6 days, starting concentration 10 μM; read-out: IH % max (maximum inhibition percentage)
Source text: as §1, §2, §3, §4, §5
Compounds D64 to D69 were tested for MDA-MB-231 (CTG) and MDA-MB-468 (CTG) with an incubation time of 72 hours in the incubator.

| pIC50 [3] | pIC50 [1] | SMILES | inhibition at up to 10 µM [1] | inhibition at up to 10 µM [2] | inhibition at up to 10 µM [3] | inhibition at up to 10 µM [4] | inhibition at up to 10 µM [5] |
| --- | --- | --- | --- | --- | --- | --- | --- |
|  |  | CCN(CCCCCOCC(=O)Nc1cccc2c1CN(C1CCC(=O)NC1=O)C2=O)CCOc1ccc(Oc2c(-c3ccc(S(C)(=O)=O)cc3)ccc3cc(O)ccc23)cc1 (centres unmarked) [Compound D1, N-(2-(2,6-dioxopiperidin-3-yl)-1-oxoisoindolin-4-yl)-2-((5-(ethyl(2-(4-((6-hydroxy-2-(4-(methylsulfonyl)phenyl)naphthalen-1-yl)oxy)phenoxy)ethyl)amino)pentyl)oxy)acetamide] | 30% | 33% | 79% | 73% |  |
| 6.30 |  | CCN(CCCc1ccc2c(c1)CN(C1CCC(=O)NC1=O)C2=O)CCOc1ccc(Oc2c(-c3ccc(S(C)(=O)=O)cc3)ccc3cc(O)ccc23)cc1 (centres unmarked) [Compound D4, 3-(5-(3-(ethyl(2-(4-((6-hydroxy-2-(4-(methylsulfonyl)phenyl)naphthalen-1-yl)oxy)phenoxy)ethyl)amino)propyl)-1-oxoisoindolin-2-yl)piperidine-2,6-dione] |  | 32% | 80% | 63% | 53% |
|  |  | CS(=O)(=O)c1ccc(-c2ccc3cc(O)ccc3c2Oc2ccc(OCCOCCOCCN3CCN(c4ccc5c(c4)C(=O)N(C4CCC(=O)NC4=O)C5=O)CC3)cc2)cc1 (centres unmarked) [Compound D16, 2-(2,6-dioxopiperidin-3-yl)-5-(4-(2-(2-(2-(4-((6-hydroxy-2-(4-(methylsulfonyl)phenyl)naphthalen-1-yl)oxy)phenoxy)ethoxy)ethoxy)ethyl)piperazin-1-yl)isoindoline-1,3-dione] | 51% | 33% | 47% |  |  |
|  | 6.65 | CS(=O)(=O)c1ccc(-c2ccc3cc(O)ccc3c2Oc2ccc(OCCOCCOCCOCCN3CCN(c4ccc5c(c4)CN(C4CCC(=O)NC4=O)C5=O)CC3)cc2)cc1 (centres unmarked) [Compound D27] | 60% | 40% | 69% |  |  |
|  |  | CS(=O)(=O)c1ccc(-c2ccc3cc(O)ccc3c2Oc2ccc(OCCN3CCN(c4ccc5c(c4)C(=O)N(C4CCC(=O)NC4=O)C5)CC3)cc2)cc1 (centres unmarked) [Compound D32, 3-(6-(4-(2-(4-((6-hydroxy-2-(4-(methylsulfonyl)phenyl)naphthalen-1-yl)oxy)phenoxy)ethyl)piperazin-1-yl)-1-oxoisoindolin-2-yl)piperidine-2,6-dione] | 39% |  | 38% | 33% |  |
|  |  | CCN(CCOCCOCCOCCOc1cccc2c1C(=O)N(C1CCC(=O)NC1=O)C2=O)CCOc1ccc(Oc2c(-c3ccc(S(C)(=O)=O)cc3)ccc3cc(O)ccc23)cc1 (centres unmarked) [Compound D36, 2-(2,6-dioxopiperidin-3-yl)-4-((3-ethyl-1-(4-((6-hydroxy-2-(4-(methylsulfonyl)phenyl)naphthalen-1-yl)oxy)phenoxy)-6,9,12-trioxa-3-azatetradecan-14-yl)oxy)isoindoline-1,3-dione] |  |  | 62% | 51% | 37% |
|  |  | CCN(CCOCCNc1ccc2c(c1)C(=O)N(C1CCC(=O)NC1=O)C2=O)CCOc1ccc(Oc2c(-c3ccc(S(C)(=O)=O)cc3)ccc3cc(O)ccc23)cc1 (centres unmarked) [Compound D38, […]] |  |  | 54% | 47% |  |
|  |  | CCN(CCOCCOCCOc1cccc2c1C(=O)N(C1CCC(=O)NC1=O)C2=O)CCOc1ccc(Oc2c(-c3ccc(S(C)(=O)=O)cc3)ccc3cc(O)ccc23)cc1 (centres unmarked) [Compound D41] |  |  | 65% | 50% | 31% |
| 6.55 |  | CCN(CCOCCOCCNc1cccc2c1C(=O)N(C1CCC(=O)NC1=O)C2=O)CCOc1ccc(Oc2c(-c3ccc(S(C)(=O)=O)cc3)ccc3cc(O)ccc23)cc1 (centres unmarked) [Compound D42] | 37% |  | 77% | 46% | 39% |
| 6.70 |  | CCN(CCOCCOCCNc1ccc2c(c1)C(=O)N(C1CCC(=O)NC1=O)C2=O)CCOc1ccc(Oc2c(-c3ccc(S(C)(=O)=O)cc3)ccc3cc(O)ccc23)cc1 (centres unmarked) [Compound D45] | 35% | 33% | 75% | 44% |  |
|  |  | CCN(CCOCCOCCOCCOc1ccc2c(c1)C(=O)N(C1CCC(=O)NC1=O)C2=O)CCOc1ccc(Oc2c(-c3ccc(S(C)(=O)=O)cc3)ccc3cc(O)ccc23)cc1 (centres unmarked) [Compound D48, 2-(2,6-dioxopiperidin-3-yl)-5-((3-ethyl-1-(4-((6-hydroxy-2-(4-(methylsulfonyl)phenyl)naphthalen-1-yl)oxy)phenoxy)-6,9,12-trioxa-3-azatetradecan-14-yl)oxy)isoindoline-1,3-dione] | 32% |  | 66% | 41% |  |
|  |  | CCN(CCOCC(=O)N1CCN(c2cccc3c2CN(C2CCC(=O)NC2=O)C3=O)CC1)CCOc1ccc(Oc2c(-c3ccc(S(C)(=O)=O)cc3)ccc3cc(O)ccc23)cc1 (centres unmarked) [Compound D52] | 52.6% | 39.4% |  |  |  |
|  |  | CCN(CCOc1ccc(Oc2c(-c3ccc(S(C)(=O)=O)cc3)ccc3cc(O)ccc23)cc1)CCN1CCN(c2ccc3c(c2)CN(C2CCC(=O)NC2=O)C3=O)CC1 (centres unmarked) [Compound D57, 3-(5-(4-(2-(ethyl(2-(4-((6-hydroxy-2-(4-(methylsulfonyl)phenyl)naphthalen-1-yl)oxy)phenoxy)ethyl)amino)ethyl)piperazin-1-yl)-1-oxoisoindolin-2-yl)piperidine-2,6-dione] |  |  | 51% | 46% |  |
|  |  | C[C@@H]1CN(CCOc2ccc(Oc3c(-c4ccc(S(C)(=O)=O)cc4)ccc4cc(O)ccc34)cc2)[C@@H](C)CN1CCN1CCN(c2ccc3c(c2)C(=O)N(C2CCC(=O)NC2=O)C3)CC1 (stereo partly drawn) [Compound D61, 3-(6-(4-(2-((2R,5S)-4-(2-(4-((6-hydroxy-2-(4-(methylsulfonyl)phenyl)naphthalen-1-yl)oxy)phenoxy)ethyl)-2,5-dimethylpiperazin-1-yl)ethyl)piperazin-1-yl)-1-oxoisoindolin-2-yl)piperidine-2,6-dione] | 45.6% | 40.2% |  |  | 32.7% |
